The values that follow come from US20260294864A1, “PHARMACEUTICAL COMPOSITION FOR THE TREATMENT AND PREVENTION OF HPV” (NP1 SRL, priority 2022, published 2026).

Structures are written as SMILES.

Common to all, as to format: cell-based, human
For experiment [1], the system named is Ca-Ski cells. Kind of experiment: Anti-clonogenic activity on Ca-Ski cells. The conditions noted are these: compared with HeLa data of FIG. 10. The source says:
(§1) HeLa cells are the oldest continuous cell lines and were originally derived from a HPV18 positive metastatic cervical carcinoma (Scherer W F et al 1953). Siha cells are an epithelioid like cell line derived from a HPV16-positive invasive cervical squamous carcinoma (Friedel F et al 1970). Ca-Ski cells are a line harboring multiple copy of transcriptionally active HPV16 genomes (Baker C C et al 1984). Both Hela and Siha were a kind gift of prof MS Campo, The Beatson Institute for Cancer Research, Glasgow, Scotland. These two cell lines because of their versatility and ease of use were used for most of experiments reported. Ca-Ski cells were obtained through the courtesy of prof. Matthias Durst, at the Deutsch Krebsforschungzentrum—Heidelberg, FRG. […]
(§2) The anti-clonogenic activity was evaluated both by the current standard qualitative plating efficiency assay and by quantitative live cell imaging analysis (INCUCYTE S3 Live Cell Analysis Imaging System—Sartorius Welwyn Garden City, Hertfordshire, UK). […] The anti-clonogenic activity of the treatments was evaluated using the colony forming units (CFU) of treated versus control cultures. […] For quantitative evaluation cells were seeded in 96-well microplates at the above density and condition and allowed to grow the subsequent 8-day incubation in the INCUCYTE S3 Imaging System. […]

The test system of experiment [2] is HPV transformed cells. Kind of experiment: Anti-clonal effect on HPV transformed cells (cell line not stated). The conditions noted are these: summary statement. The protocol:
The inhibitory relative rate (IRR) (fourth column) provides an efficacy ranking of molecules.
The anti-clonogenic activity was evaluated both by the current standard qualitative plating efficiency assay and by quantitative live cell imaging analysis (INCUCYTE S3 Live Cell Analysis Imaging System—Sartorius Welwyn Garden City, Hertfordshire, UK). For qualitative plating efficiency assay cells were seeded at ‘clonal’ density (i.e., 0.5 cell/mm^2) either in medium containing the testing molecules or with plain medium and incubated without any further manipulation. After 9-14 days, according to the cell line specific proliferative index, the cultures were decanted and stained with 0.2% CV/methanol for 5 min at room temperature. All conditions were tested in triplicates in a 6-well culture plate. The anti-clonogenic activity of the treatments was evaluated using the colony forming units (CFU) of treated versus control cultures. The minimal concentration which could reduce 50% of the CFU of treated versus control culture was defined as colony-forming Inhibitory concentration (CID50). For quantitative evaluation cells were seeded in 96-well microplates at the above density and condition and allowed to grow the subsequent 8-day incubation in the INCUCYTE S3 Imaging System. Images were acquired at 12-hours intervals and colony formation and percentage of growth area covered (confluency) were then monitored through automated image analysis. The analysis parameters were as follows: segmentation adjustment=0.4; hole fill <5,000 μm^2; adjusted pixel=−2.

In experiment [3] the test system is ME-180 cells. Kind of experiment: Anti-clonogenic activity on ME-180 cells. The conditions noted are these: compared with HeLa data of FIG. 10.
Text: as §1, §2

The test system of experiment [4] is HeLa cells. Kind of experiment: Anti-clonogenic activity on HeLa cells (plating efficiency assay / live cell imaging). To be noted: HeLa. As to the method:
Panel C and D: diagrammatic topographical maps of treatments and growth conditions on plates A and B respectively.
Panel A. Hela cells were challenged with serial twofold dilutions of 50 μM Luteolin (in columns 1-6) and 100 μM Galangin (columns 7-10). Hela control untreated cells in columns 11-12.
A total of 6 cell lines, outlined in Table 3, were used for this study. The cell lines were obtained from Research Centres of cell biology in Italy, United Kingdom and Germany. This research raised no ethical concern being based on entirely in vitro experiments using no patients' derived information or material. In compliance with National and International ethical rules, no informed consent is needed.
HeLa cells are the oldest continuous cell lines and were originally derived from a HPV18 positive metastatic cervical carcinoma (Scherer W F et al 1953). Siha cells are an epithelioid like cell line derived from a HPV16-positive invasive cervical squamous carcinoma (Friedel F et al 1970). Ca-Ski cells are a line harboring multiple copy of transcriptionally active HPV16 genomes (Baker C C et al 1984). Both Hela and Siha were a kind gift of prof MS Campo, The Beatson Institute for Cancer Research, Glasgow, Scotland. These two cell lines because of their versatility and ease of use were used for most of experiments reported. Ca-Ski cells were obtained through the courtesy of prof. Matthias Durst, at the Deutsch Krebsforschungzentrum—Heidelberg, FRG. These cells used together with Siha provide a model for the genetic instability and variability of cervical cancers. HK-168 is an immortalized, non-tumorigenic, continuous cell line derived from human skin keratinocytes in vitro transformed with whole HPV16 genome (De Marco F et al 2007). This cell line is reputed to recapitulate le biological features of transformed dysplastic cells and was used in preliminary experiments to set the experimental dosages and conditions. The ME-180 cells are a cell line harboring a few, transcriptionally active, copies of HPV68 and provide an in vitro model for dysplastic/neoplastic lesions induced by HPV with Intermediate oncogenic Risk (Yee C C et al 1985). The HaCaT cells, derived from a solar skin lesion by Petra Boukamp et al (1988) are here used as an in vitro equivalent of Ultra-Violet induced pre-neoplastic epithelial cells to rule out possible direct toxic effects of polyphenols. Both HaCaT and ME-180, were kindly donated by Prof. Matthias Durst. Hela, Siha, Ca-Ski, ME-180 and HaCaT were all grown in high glucose DMEM supplemented with 10% fetal calf serum (FCS). The HK-168 cells, which retained the ability to terminally differentiate under high Ca^2+ and FCS concentrations, were grown in K-SFM, a chemically defined medium supplemented with human EGF and bovine pituitary extract (ThermoFisher Scientific, Life Technologies, Monza—MI). Each cell line was sub-cultured twice a week at the appropriate split ratio according to the specific proliferative index. In no case antibiotics or antimycotics were added to the culture media. For the present study, all cell lines were retrieved from an in-house cell archive facility.
The anti-clonogenic activity was evaluated both by the current standard qualitative plating efficiency assay and by quantitative live cell imaging analysis ([…] S3 Live Cell Analysis Imaging System—Sartorius Welwyn Garden City, Hertfordshire, UK).

Take `COc1cc(/C=C/C(=O)O)ccc1O` [Ferulic acid]: the “clonal inhibition with Galangin, Chrysin or Apigenin” value in experiment [1] and in experiment [3] was “Superimposable results” in each case. Besides, in experiment [2] (combined with Galangin, Chrysin or Apigenin), the “clonal inhibition in combination” value is given as “a certain grade of clonal inhibition”. Further, the “anticlonogenic / anti-clonal effect” value in experiment [2] (isolated compound) is listed as “devoid of. any direct anticlonogenic activity”. In addition, in experiment [4] (50 μM combined with Apigenin 25 μM, FIG. 9-11), the “clonal inhibition in combination with Apigenin” value is listed as “almost complete clonal inhibition”. The “clonal inhibition in combination with Chrysin” value in experiment [4] (50 μM combined with Chrysin 25 μM, FIG. 10-11) is recorded as “almost complete clonal inhibition”. The “clonal inhibition in combination with Galangin” value in experiment [4] (50 μM combined with Galangin 12.5 μM, FIG. 9-10) was “almost complete clonal inhibition”. The “end point clonal assay, clonal inhibition alone” value in experiment [4] (50 μM, administered alone, FIG. 9-11) is reported as “Neither of them induced any effect”. Also, the Anti-clonal effect result in experiment [4] (50 μM, isolated, FIG. 1) is given as “devoid of any significant anticlonogenic effect”. In addition, the “synergy with Galangine, Apigenin and Chrysin” value in experiment [4] (in association, FIG. 10-11) is reported as “synergize”.
